Marks after values point to notes of the source that are not given here.
Key:
[1] = TBARS formation in cooked pork model system; conditions: 80 μmol/kg meat, stored at 4° C.
Description: Fresh ground pork (40 g) was mixed with deionized water (10 g) in a Mason jar. Samples and reference antioxidant compound (BHA) dissolved in ethanol were added to meat at a level of 80 μmol/kg. A control without any antioxidant was also prepared. The content was thoroughly mixed and cooked at 80° C. in a thermostated water bath for 40 min with intermittent stirring. The cooked meat was cooled to room temperature and homogenized with a Polytron PT 3000 (Brinkmann Instruments, Rexdale, ON) homogenizer. The homogenate was then transferred into plastic bags and stored at 4° C. for 14 days. […].
TBARS values were determined as described by Shahidi and Hong (Shahidi, F. and Hong, C. Evaluation of malonaldehyde as a marker of oxidative rancidity in meat products. J. Food Biochem. 15, 97-105, 1991).
A series of TMP (1,1,3,3-tetramethoxypropane) standard solutions at difference concentrations was mixed with thiobarbituric acid (TBA) in screw-capped tubes and heated in a boiling water bath for 45 min. After cooling on ice, the absorbance was recorded at 532 nm and a standard curve was constructed (absorbance versus concentration). For TBARS in the cooked meat model system, 2 g of meat were mixed with 5 ml of trichloroacetic acid (TCA, 10% w/v) in a centrifuge tube, followed by addition of 5 ml of TBA reagent. The mixture was centrifuged at 3000×g for 10 min and the supernatant was filtered. The filtrate was heated in a boiling water bath for 45 min and absorbance was measured at 532 nm after cooling to room temperature. TBARS values in meat samples were obtained using the standard curve as μmol malonaldehyde equivalents/kg of meat. Antioxidant activity was calculated as percentage inhibition of TBARS formation by test compounds.

COX-2 = COX-2 protein expression in LPS-stimulated RAW 264.7 macrophages (western blot); type: cell-based, murine; conditions: LPS 100 ng/ml, RAW 264.7, western blot
Description: RAW 264.7 cells were cultured in Rosewell Park Memorial Institute (RPMI) 1640 media (without phenol red) supplemented with 10% endotoxin-free, heat-inactivated fetal calf serum, 100 units/ml penicillin, and 100 μg/ml streptomycin. When the cells reached a density of 2-3×10^6 cells/ml, they were activated by incubation in a medium containing E. coli lipopolysaccharide (LPS) (100 ng/ml). Various concentrations of compounds of the disclosure in dimethyl sulphoxide (DMSO) were added together with LPS. Cells were treated with 0.05% DMSO as the vehicle control. The stimulated murine macrophage cell line RAW 264.7 cells were washed with PBS and lysed in an ice-cold RIPA buffer (Tris-HCl, pH 7.2, 25 mM; 0.1% SDS; 1% Triton X-100; 1% sodium deoxycholate; 0.15 M NaCl; 1 mM EDTA) containing 1 mM phenylmethyl sulphonyl fluoride (PMSF), 10 μg/mL aprotinin, 1 mM sodium ortho-vanadate, and 5 μg/mL leupeptin. Protein concentrations were determined using the BCA method (Pierce, Rockford, Ill.). The samples (50 μg of protein) were mixed with 5-fold of sample buffer containing 0.3 M Tris-HCl (pH 6.8), 25% 2-mercaptoethanol, 12% sodium dodecyl sulphate (SDS), 25 mM EDTA, 20% glycerol, and 0.1% bromophenol blue. The mixtures were boiled at 100° C. for 5 min, prerun on a stacking gel, and then resolved by 12% SDS-polyacrylamide minigels at a constant current of 20 mA. For western blot, proteins on the gel were electro-transferred onto a […] immobile polyvinylidene fluoride (PVDF) membrane with a transfer buffer composed of 25 mM Tris-HCl (pH 8.9), 192 mM glycine, and 20% methanol, as described by Pan et al. (2000). Membrane blocking was then carried out at room temperature for 1 h in blocking solution (20 mM Tris-HCl pH 7.4, 125 mM NaCl, 0.2% Tween 20, 1% bovine serum albumin, and 0.1% sodium azide). The membrane was incubated with the primary antibody of iNOS and COX-2 at 4° C. overnight. The membranes were subsequently probed with selected IgG antibody conjugated to horseradish peroxidase (Transduction Laboratories, Lexington, Ky.) and visualized using enhanced chemiluminescence (ECL, Amersham). The densities of the bands were quantitated using a densitometer (AlphaImager 2200 System). All the membranes were stripped and reprobed for β-actin (Sigma Chemical Co., St. Louis, Mo.) as loading control. […] The inhibition of iNOS induction by compounds of the disclosure may be due to down regulation of iNOS gene expression. EGCG and compounds of the disclosure with antioxidant activities may inhibit the ROS/RNS-mediated activation of NF-κB, the transcription factor that promotes gene expression of iNOS. […] The difference in their ability to inhibit production of iNOS and COX-2 may be due to other mechanisms involved in addition to blocking the NF-κB signalling pathway. EGCG and its derivatives may also suppress the cytokine production by breaking down the mRNA and protein of iNOS and COX-2 to varied degrees. (7b) Inhibition Against LPS-Induced NO Production in RAW 264.7 Macrophage The LPS-induced NO production by the macrophages was determined as nitrite concentration in the culture medium according to the Griess reaction. The culture medium of the control and treated cells was collected and centrifuged. An aliquot (100 μL) of the supernatant was mixed with an equal volume of Griess reagent. The absorbance of the mixture at 550 nm was measured with an ELISA plate reader (Dynatech MR-7000; Dynatech Laboratories, Chantilly, Va., USA). […]

SMILES | Inhibition of TBARS formation in cooked pork [1] | Inhibition of COX-2 protein expression (COX-2)
CCCCCCCCCCCCCCCCCC(=O)Oc1cc(C(=O)OC2Cc3c(O)cc(O)cc3OC2c2cc(OC(=O)CCCCCCCCCCCCCCCCC)c(O)c(OC(=O)CCCCCCCCCCCCCCCCC)c2)cc(OC(=O)CCCCCCCCCCCCCCCCC)c1O (centres unmarked) [Compound 1a, EGCG stearate] | 86.3 ± 2.10^a % | decreased in the order of 1a>1b>EGCG>1c
CCC=CCC=CCC=CCC=CCC=CCCCC(=O)Oc1cc(C(=O)OC2Cc3c(O)cc(O)cc3OC2c2cc(OC(=O)CCCC=CCC=CCC=CCC=CCC=CCC)c(O)c(OC(=O)CCCC=CCC=CCC=CCC=CCC=CCC)c2)cc(OC(=O)CCCC=CCC=CCC=CCC=CCC=CCC)c1O (centres unmarked) [Compound 1b] | 80.5 ± 0.80^bc % | decreased in the order of 1a>1b>EGCG>1c
CCC=CCC=CCC=CCC=CCC=CCC=CCCC(=O)Oc1cc(C(=O)OC2Cc3c(O)cc(O)cc3OC2c2cc(OC(=O)CCC=CCC=CCC=CCC=CCC=CCC=CCC)c(O)c(OC(=O)CCC=CCC=CCC=CCC=CCC=CCC=CCC)c2)cc(OC(=O)CCC=CCC=CCC=CCC=CCC=CCC=CCC)c1O (centres unmarked) [Compound 1c] | 78.4 ± 1.62^c % | decreased in the order of 1a>1b>EGCG>1c
O=C(O[C@@H]1Cc2c(O)cc(O)cc2O[C@@H]1c1cc(O)c(O)c(O)c1)c1cc(O)c(O)c(O)c1 [EGCG, Epigallocatechin gallate, reference compound] | 71.9 ± 1.56^d % | decreased in the order of 1a>1b>EGCG>1c
